One may read the IC50 as the concentration needed to halve the response being measured. What is called CC50 is the concentration that lowers cell viability or growth by half.

The target of data set [1] is T1, Amine oxidase [flavin-containing] B (Homo sapiens, UniProt P27338).
T1 sequence (P27338 whole entry): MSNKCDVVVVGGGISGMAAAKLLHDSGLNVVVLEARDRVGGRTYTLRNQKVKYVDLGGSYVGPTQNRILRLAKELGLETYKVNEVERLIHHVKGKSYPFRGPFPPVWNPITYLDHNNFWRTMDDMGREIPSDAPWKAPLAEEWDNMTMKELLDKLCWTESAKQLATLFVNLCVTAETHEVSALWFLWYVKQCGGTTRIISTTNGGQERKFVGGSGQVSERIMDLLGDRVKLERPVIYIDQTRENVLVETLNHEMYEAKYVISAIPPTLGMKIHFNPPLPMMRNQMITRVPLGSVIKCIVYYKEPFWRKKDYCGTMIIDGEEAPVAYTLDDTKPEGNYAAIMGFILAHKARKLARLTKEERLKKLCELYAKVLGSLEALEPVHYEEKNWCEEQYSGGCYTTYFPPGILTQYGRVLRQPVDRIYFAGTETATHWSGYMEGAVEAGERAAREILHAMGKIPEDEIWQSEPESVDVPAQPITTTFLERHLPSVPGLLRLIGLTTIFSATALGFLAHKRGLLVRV
Kind of data set: Reversible inhibition of human MAO-B expressed in baculovirus infected BT1 cells microsome fraction assessed as enzyme activity recovered at 100 times of IC50 concentration preincubated for 30 mins followed by dilution to IC50 concentration by fluorescence spectrometry. Further details: scale not given: the % may be the effect or the level left.

Data set [2] deals with T1, Amine oxidase [flavin-containing] B. Put plainly: Reversible inhibition of human MAO-B expressed in baculovirus infected BT1 cells microsome fraction assessed as enzyme activity recovered at 10 times of IC50 concentration preincubated for 30 mins followed by dilution to 0.1 times of IC50 concentration by fluorescence spectrometry. Further details: scale not given: the % may be the effect or the level left.

A further data set is filed under the species Homo sapiens. Put plainly: Selectivity index, ratio of IC50 for human MAO-A to IC50 for human MAO-B.
Data set [3] in a line: Cytotoxicity against human HeLa cells assessed as viable cells at 10 uM by MTT assay. Type of data set: cell-based. The following applies: read-out: Activity. Background: Tetrazolium assays rely on reduction of a dye to a coloured formazan, in cell work by metabolically active cells.
The target of data set [4] is T2, Amine oxidase [flavin-containing] A (Homo sapiens, UniProt P21397).
T2 sequence (P21397 whole entry): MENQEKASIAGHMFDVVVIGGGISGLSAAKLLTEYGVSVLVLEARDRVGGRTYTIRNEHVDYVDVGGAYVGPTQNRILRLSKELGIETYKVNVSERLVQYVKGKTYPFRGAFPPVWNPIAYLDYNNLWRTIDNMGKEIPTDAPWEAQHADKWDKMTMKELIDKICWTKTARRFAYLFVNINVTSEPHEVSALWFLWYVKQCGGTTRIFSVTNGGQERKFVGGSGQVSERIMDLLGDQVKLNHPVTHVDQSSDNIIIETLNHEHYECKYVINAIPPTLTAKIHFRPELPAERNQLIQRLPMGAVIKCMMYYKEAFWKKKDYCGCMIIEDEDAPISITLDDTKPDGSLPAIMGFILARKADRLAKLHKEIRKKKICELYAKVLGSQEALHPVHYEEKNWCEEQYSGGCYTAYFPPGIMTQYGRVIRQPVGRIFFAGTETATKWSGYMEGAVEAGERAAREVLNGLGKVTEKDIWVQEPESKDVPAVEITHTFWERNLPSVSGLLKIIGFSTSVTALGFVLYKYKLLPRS
Kind of data set: Inhibition of human MAO-A expressed in baculovirus infected BT1 cells microsome fraction by fluorescence spectrometry.

Data set [5] can be described thus: Cytotoxicity against human HeLa cells assessed as viable cells at 1 uM by MTT assay. Type of data set: cell-based. The following applies: read-out: Activity.
Data set [6] addresses T1, Amine oxidase [flavin-containing] B. Kind of data set: Inhibition of human MAO-B expressed in baculovirus infected BT1 cells microsome fraction by fluorescence spectrometry.
Data set [7] concerns the target T2, Amine oxidase [flavin-containing] A. Kind of data set: Irreversible inhibition of human MAO-A expressed in baculovirus infected BT1 cells microsome fraction assessed as enzyme activity recovered at 10 times of IC50 concentration preincubated for 30 mins followed by dilution to 0.1 times of IC50 concentration by fluorescence spectrometry. Further details: scale not given: the % may be the effect or the level left.

A short description of data set [8]: Cytotoxicity against human HeLa cells by MTT assay. Type of data set: cell-based.
The target in data set [9] is T2, Amine oxidase [flavin-containing] A. Kind of data set: Reversible inhibition of human MAO-A expressed in baculovirus infected BT1 cells microsome fraction assessed as enzyme activity recovered at 100 times of IC50 concentration preincubated for 30 mins followed by dilution to IC50 concentration by fluorescence spectrometry. The arrangement: scale not given: the % may be the effect or the level left.

Data set [10] shares this target. Put plainly: Reversible inhibition of human MAO-A expressed in baculovirus infected BT1 cells microsome fraction assessed as enzyme activity recovered at 10 times of IC50 concentration preincubated for 30 mins followed by dilution to 0.1 times of IC50 concentration by fluorescence spectrometry. The arrangement: scale not given: the % may be the effect or the level left.

Data set [11] has as its target T1, Amine oxidase [flavin-containing] B. Kind of data set: Reversible inhibition of human MAO-B expressed in baculovirus infected BT1 cells microsome fraction assessed as residual enzyme activity at 4 times of IC50 concentration preincubated for 15 mins followed by dialysis for 24 hrs by fluorescence spectrometry relative to control.
The target is the same in data set [12]. Put plainly: Inhibition of human MAO-B expressed in baculovirus infected BT1 cells microsome fraction assessed as residual enzyme activity at 4 times of IC50 concentration for 15 mins by fluorescence spectrometry relative to control. As to conditions: 0.25 h.

For the compound `O=C(/C=C/c1ccc(F)c(Br)c1)c1ccc[nH]1`, the Activity in data set [1] is 60%; in data set [2], 81%. For the same compound, the Ratio IC50 in the data set filed under Homo sapiens came to 11. In addition, in [3], the viability at 10 µM was found to be 98%. Moreover, the values for the 50% inhibitory concentration (IC50) in [4] and in [6] were 8.98 µM and 0.803 µM, respectively. Further, the viability at 1 µM in data set [5] turned out to be 99.4%.

In the case of `C#CCN(C)Cc1ccccc1` [PARGYLINE], the Activity in data set [7] is 1.2%.

Turning to `O=C(/C=C/c1ccc(C(F)(F)F)cc1)c1ccc(Cl)s1`, the Ratio IC50 in the data set filed under Homo sapiens worked out at 57. Also, the IC50 in data set [4] came to 7.56 µM; in data set [6], 0.133 µM.

For `O=C(/C=C/c1ccc(C(F)(F)F)cc1)c1ccc[nH]1`, in [8], the CC50 was determined as 28.2 µM. For the same compound, the Activity in [1] turned out to be 32%; in [2], 85%; in data set [9], 67%; in data set [10] it was 90%. Besides, the viability at 10 µM in data set [3] stood at 4.66%. Also, the half-maximal inhibitory concentration (IC50) in [4] was determined as 3.81 µM; in [6], 0.83 µM. In addition, the viability at 1 µM in [5] amounted to 77.5%.

`O=C(/C=C/c1cccc(C(F)(F)F)c1)c1ccc[nH]1`: in the data set listed under Homo sapiens, the Ratio IC50 is 191. Further, the IC50 in [4] came to 267 µM; in [6] it was 1.4 µM.

On to `COc1ccc(C(=O)/C=C/c2cccc(Cl)c2)cn1`, for which the Ratio IC50 in the data set filed under Homo sapiens was 46. Moreover, the IC50 in data set [4] worked out at 15.3 µM; in data set [6] it was 0.33 µM.

Turning to `COc1ccc(C(=O)/C=C/c2ccc(Cl)s2)c(O)c1`, the Ratio IC50 in the data set listed under Homo sapiens is 54. The half-inhibitory concentration (IC50) in data set [4] turned out to be 9.99 µM; in data set [6], 0.185 µM.

Regarding `O=C(/C=C/c1ccc(F)c(Br)c1)c1ccc(Cl)s1`, in the data set listed under Homo sapiens, the Ratio IC50 was 91. The results for the 50% inhibitory concentration (IC50) in data set [4] and in [6] were 10.5 µM and 0.116 µM, respectively.

As to `O=C(/C=C/c1cccc(Cl)c1)c1ccc[nH]1`, the Ratio IC50 in the data set filed under Homo sapiens was found to be 44. Further, the IC50 in data set [4] was determined as 143 µM; in [6], 3.27 µM.

For `C#CCN(C)[C@H](C)Cc1ccccc1` [SELEGILINE], in data set [7], the Activity is 1.2%.

`Cc1ccc(C(=O)/C=C/c2ccc(F)c(Br)c2)s1`: the Activity is listed as 83% in data set [11], 5% in data set [1], 26% in data set [2] and 18% in [12]. The Ratio IC50 in the data set filed under Homo sapiens stood at 240. In addition, the viability at 10 µM in [3] was determined as 95.7%. Also, the IC50 in data set [4] came out at 16.1 µM; in [6], 0.067 µM. The viability at 1 µM in data set [5] came to 104%.

Values taken from ChEMBL document CHEMBL3734746, “Monoamine oxidase inhibitory activities of heterocyclic chalcones” (Bioorg Med Chem Lett, 2015).
